Reference: patent US11701369B2, “Polymeric bile acid derivatives inhibit Hepatitis B and D virus and NTCP transport” (Huahui Health Ltd., priority 2014, dated 2023)
Entries after “also recorded” stand apart in the source; their conditions may differ. Like-named read-outs stand apart in the source and are kept apart here.

Tests used:
NTCP [1] = target: T1, NTCP (Homo sapiens, UniProt Q14973); test: [3H] taurocholate uptake assay on HepG2-NTCP cells; type: cell-based; conditions: for inhibition of NTCP substrate uptake (in words): co-incubation assay, [3H] taurocholate, 10 min; for IC50: pretreatment assay, HepG2-NTCP cells pretreated 2 hrs before uptake assay, read-out: IC50 for inhibiting NTCP-mediated [3H] taurocholate uptake
T1 construct: expressed in transfected cells
T1 sequence (Q14973 1-349): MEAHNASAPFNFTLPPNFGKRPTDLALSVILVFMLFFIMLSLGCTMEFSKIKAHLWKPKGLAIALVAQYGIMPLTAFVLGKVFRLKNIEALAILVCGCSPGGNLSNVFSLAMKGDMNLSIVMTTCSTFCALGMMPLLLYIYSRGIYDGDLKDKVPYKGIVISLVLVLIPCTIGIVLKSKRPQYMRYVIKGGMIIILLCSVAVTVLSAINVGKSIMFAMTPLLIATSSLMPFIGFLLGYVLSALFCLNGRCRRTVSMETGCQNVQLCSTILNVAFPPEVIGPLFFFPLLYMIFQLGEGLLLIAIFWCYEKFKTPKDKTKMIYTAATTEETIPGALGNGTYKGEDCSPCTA
Procedure: [3H] substrate uptake assay. [3H]taurocholate uptake assay was conducted following a protocol as previously described(60). In general, HepG2-NTCP cells were cultured in PMM for 12-24 hrs, then were treated with or without indicated chemicals before uptake assay. For substrate uptake assay, cells were generally incubated with 0.5 μl (0.5 μCi) [3H]-taurocholate dissolved in Na+ Ringer's solutions for 10 mins at 37° C. with or without the presence of chemicals. Subsequently, cells were washed once by PBS and lysed by 100 μl of 1% TritonX-100 in H2O for 5 mins at room temperature. The lysate was transferred into liquid scintillation tube and mixed with 900 μl liquid scintillation cocktail (Ultima GOLD™ XR) (Perkin Elmer, USA). Liquid scintillation counting was performed on a Perkin Elmer 1450 LSC Liquid Scintillation Counter and Luminescence Counter.

HepG2-NTCP cells = test: In vitro cytotoxicity on HepG2-NTCP cell line; type: cell-based
Procedure: FIG. 6 Toxicity of 3UT(NQL-012), DiU(NQL-009) and 3TPT(NQL-018) in cell cultures. HepG2-NTCP cells were incubated with 3UT(NQL-012), DiU(NQL-009) or 3TPT(NQL-018) at indicated concentrations for 48 hrs, cell viability was evaluated and images were captured at 5 dpi.
In vitro cytotoxicity of PBADs. We also conducted experiments to determine the LD50 on HepG2-NTCP cell line of the three PBADs (3-UT (NQL-012), DIU (NQL-009), 3TPT (NQL-018)). We treated cells by different concentrations of PBADs for 48 hrs and captured the images of cells after they were further cultured for 3 days in PMM. […] No detectable cytotoxicity was observed upon treatment of DIU(NQL-009) and 3TPT(NQL-018) up to 200 μM, which is 2000-4000 folds higher than its inhibitory concentration for HBV infection.

NTCP [2] = target: T1, NTCP; test: FITC-preS1 peptide binding assay
Procedure: FITC-preS1 peptide binding assay. NTCP expressing cells were cultured in PTH maintenance medium (PMM) for 24 hrs before conducting this assay. For Immunofluorescence microscopy, cells were incubated with 400 nM FITC-pre-S1 peptide diluted in WME or PMM at 37° C. for about 2-3 hrs. Subsequently, cells were washed once by WME, and then directly visualized with a Fluorescence Microscope.

HBV [3] = test: In vitro stability: incubation with HBV inocula before infection, HBeAg ELISA; type: cell-based, Hepatitis B virus; conditions: incubated with HBV inocula for different times before infection, HBeAg at 5 dpi
Procedure: FIG. 10 The influence of the linkage groups on the in vitro stability of PBADs. TUDCA, NQL018, NQL044, and NQL055 were incubated with HBV inocula of different times before viral infection, and present in the inocula during infection period. The level of secreted HBeAg was detected by ELISA at 5 dpi.
The in vitro stability of PBADs could PBADs could be enhanced by optimization of the linkage bond. We conducted stability analysis of several PBADs with similar structure but of different linkage. […] This indicates the in vitro and in vivo stability is to a large extent determined by the feature of the linkage groups.

HBV [4] = test: HBV infection assay on HepG2-NTCP cells (secreted HBeAg by ELISA); type: cell-based, Hepatitis B virus; conditions: for inhibition of HBV infection (in words): secreted HBeAg
Procedure: (§1) HBV and HDV infection assay. HepG2NTCP Cells were cultured in PMM for 12-24 hrs before infection, and then inoculated with 200 multiplicities of genome equivalents (mge) of HBV, or 500 mge of HDV in the presence of 5% PEG8000 in PMM at 37° C. for about 24 hrs. Chemicals to be tested were added to the cells as indicated in the specific assays. The inoculum was replenished by PMM post infection. The infections were detected at day 5 post infection (dpi).
ELISA assay for the detection of HBeAg and HBsAg. ELISA kits for HBeAg and HBsAg detection were from Wantai Pharm Inc. (Beijing, China). Supernatant from infected HepG2NTCP cells was collected on 2-5 days post infection. The secreted HBeAg and HBsAg in the culture medium was measured with a commercial kit from Wantai Pharm Inc (Beijing, China) by following the manufactory's instructions.

HDV = HDV infection assay on HepG2-NTCP cells (intracellular delta antigen staining); type: cell-based, Hepatitis D virus
Procedure: as §1
Immunostaining assay. For HBV infection, infected cells were washed twice with PBS and fixed in 3.7% paraformaldehyde (PFA) at room temperature for 10 mins. Subsequently, cells were permeabilized with 0.5% Trition X-100/PBS for 10 mins at room temperature, blocked with 3% BSA at 37° C. for 1 hour, and followed by incubating with 5 μg/ml mouse mAb1C10 which recognizes HBcAg, and followed by staining with FITC-conjugated secondary antibody. Nucleus was stained with DAPI in blue. The stained cells were imaged with the fluorescence microscope (Nikon). For HDV infection, on 5 dpi, HDV infected cells were fixed with 100% methanol at room temperature for 10 mins, intracellular delta antigens were then stained with 5 μg/ml of FITC conjugated 4G5 and nucleus were stained with DAPI in blue. Images were collected by an Eclipse Ti Fluorescence Microscope (Nikon) and a representative picture is shown.

HBV [5] = test: HBV infection assay on HepaRG cells (HBsAg and HBeAg ELISA); type: cell-based, Hepatitis B virus; conditions: HBsAg and HBeAg at 5 dpi
Procedure: FIG. 11 HepaRG cells were infected with HBV in the presence of indicated PBADs. The level of secreted HBsAg and HBeAg was detected by ELISA at 5 dpi.
The antiviral potency of PBADs is also repeatable on other HBV infection system (HepaRG) with similar inhibition profile. […] HBV infection was conducted in the presence of NQL028, NQL018, NQL029, NQL019 and NQL021, all of which were bis-ester based PBADs with different linkage length.

[6] = Hepatitis B virus, read-out: IC50 for inhibiting HBV infection, HepG2-NTCP cells, PBAD present during infection, HBeAg in medium at 5 dpi

## C[C@H](CCC(=O)NCCS(=O)(=O)O)[C@H]1CC[C@H]2[C@@H]3[C@@H](O)CC4C[C@H](OC(=O)CCCC(=O)O[C@@H]5CC[C@@]6(C)C(C5)C[C@H](O)[C@H]5[C@@H]7CC[C@H]([C@H](C)CCC(=O)NCCS(=O)(=O)O)[C@@]7(C)CC[C@@H]56)CC[C@]4(C)[C@H]3CC[C@]12C (stereo in doubt) [NQL-018]
NTCP [1]
  inhibition of NTCP substrate uptake (in words): significantly higher efficiency than that of TUDCA
  IC50: 58.7 nM
HepG2-NTCP cells; human, 48 h
  concentration up to which no detectable cytotoxicity was observed: 200 µM
NTCP [2]; HepG2-NTCP cells, pretreatment versus co-incubation, 3 hrs
  blocking of FITC-preS1 binding to NTCP (in words): effect of pretreatment of 3TPT(NQL-018) was not as strong as that of co-incubation
HBV [3]
  in vitro stability (antiviral potency after long incubation with the inoculum): not stable upon long time incubation with the inoculum; also recorded: decreased activity after long time incubation
HBV [4]; HepG2-NTCP cells
  inhibition of HBV infection (in words): high antiviral activity; also recorded: greatly improved potency
HBV [4]; [6]
  IC50: 51 nM
HBV [4]; read-out: IC50 for inhibiting HBV infection, HepG2-NTCP cells, PBAD present during infection, HBeAg in medium at 5 dpi
  IC50: 51 nM
HDV
  inhibition of HDV infection (in words): high antiviral activity; also recorded: greatly improved potency
HBV [5]
  inhibition of HBV infection on HepaRG cells (in words): inhibited HBV infection

## C[C@H](CCC(=O)O[C@H]1CC[C@@]2(C)C(C1)C[C@H](O)C1[C@H]3CC[C@H]([C@H](C)CCC(=O)NCCS(=O)(=O)O)[C@@]3(C)CC[C@H]12)[C@H]1CC[C@@H]2C3[C@@H](CC[C@@]21C)[C@@]1(C)CC[C@H](O)CC1C[C@@H]3O (stereo partly shown) [NQL-012]
NTCP [1]
  inhibition of NTCP substrate uptake (in words): significantly higher efficiency than that of TUDCA
  IC50: 109 nM
HepG2-NTCP cells; HepG2-NTCP, 48 hrs treatment, then 3 days culture in PMM
  LD50: ~25 µM
HBV [4]; HepG2-NTCP cells
  inhibition of HBV infection (in words): high antiviral activity; also recorded: greatly improved potency
HBV [4]; [6]
  IC50: 100 nM
HDV
  inhibition of HDV infection (in words): high antiviral activity; also recorded: greatly improved potency

## C[C@H](CCC(=O)O[C@H]1CC[C@@]2(C)C(C1)C[C@H](O)C1[C@H]3CC[C@H]([C@H](C)CCC(=O)O[C@H]4CC[C@@]5(C)C(C4)C[C@H](O)C4[C@H]6CC[C@H]([C@H](C)CCC(=O)NCCS(=O)(=O)O)[C@@]6(C)CC[C@H]45)[C@@]3(C)CC[C@H]12)[C@H]1CC[C@@H]2C3[C@@H](CC[C@@]21C)[C@@]1(C)CC[C@H](O)CC1C[C@@H]3O (stereo partly shown) [NQL-016]
NTCP [2]; high concentration of compound
  effect on FITC-preS1 peptide at high concentration: aggregation of FITC-preS1 peptide
HBV [4]; HepG2-NTCP cells
  inhibition of HBV infection (in words): not as high as the dimeric counterparts
HDV
  inhibition of HDV infection (in words): not as high as the dimeric counterparts
